Data reported in patent US11680043B2 (priority 2021, dated 2023).
Several values for one entry are separate records, joined by “and”; a condition that tells them apart may be missing. Equal entries are not always repeated. Structures can show the parent of a compound that is named as a salt.

Experiment: Solubility of psilocin salts in saline
Settings: for XRPD of Residue: solid residue after 5 hrs in saline (Table 9)
[1] = Saline, updated summary (Table 10)
[2] = pH of saturated solution in saline (Table 9)

| SMILES | pH at 5 hrs [1] | pH at 5 hrs [2] | XRPD of Residue | Solubility in Saline (Table 4 summary) [µg/mL] | pH at 5 hrs (Saline, updated summary (Table 10), hydrochloride) | pH at 5 hrs (pH of saturated solution in saline (Table 9), hydrochloride) |
| --- | --- | --- | --- | --- | --- | --- |
| CN(C)CCc1c[nH]c2cccc(O)c12.O=S(=O)(O)c1cccc2c(S(=O)(=O)O)cccc12 [Psilocin 1,5-napthalenedisulfonate NAP Pattern 1] | 2.0 | 2.0 | NAP Pattern 1 |  |  |  |
| CN(C)CCc1c[nH]c2cccc(O)c12.O=C(O)c1ccccc1 [Psilocin benzoate BEN Pattern 1, Psilocin benzoate] | 6.8 and 6.9 | 6.8 and 6.9 | BEN Pattern 1 | 5000 |  |  |
| CN(C)CCc1c[nH]c2cccc(O)c12 [Psilocin free base, Psilocin, reference compound] | 9.8 and 9.9 | 9.8 and 9.9 | Freeform Pattern 1 |  |  |  |
| CN(C)CCc1c[nH]c2cccc(O)c12 [Psilocin hydrochloride HCl Pattern 1, Psilocin hydrochloride] |  |  |  |  | 4.0 and 5.4 | 6.0 and 6.1 |
| CN(C)CCc1c[nH]c2cccc(O)c12.O=C(O)c1ccccc1O [Psilocin salicylate SAL Pattern 1, Psilocin salicylate] | 4.2 | 4.2 | SAL Pattern 1 |  |  |  |
